In patent US9260417B2, “Therapeutic methods and compositions involving allosteric kinase inhibition” (AMITECH THERAPEUTIC SOLUTIONS, INC., priority 2010, dated 2016):

Experiments:
[1] = target: B-RAF/C-RAF heterodimerization (Homo sapiens (Human), UniProt P15056); assay: B-RAF/C-RAF heterodimerization in HUVECs (immunoprecipitation/Western); assay type: cell-based; conditions: ECs stimulated with bFGF or VEGF
HCT116 = assay: Tumor cell viability; assay type: cell-based, human; conditions: Homo sapiens, HCT-116; Colon HCT116, K-Ras
Method: (§1) For XTT assays, cells were grown in 96-well plates overnight and all assays were conducted in growth medium will full serum and additives. Compounds were serially diluted in DMSO and then further diluted into the medium to give the appropriate concentration while minimizing precipitation associated with serial diluting in medium alone Inhibitors were added for 72 h and cell viability was quantified at 450 nm after the addition of 1 mg/ml XTT solution (Sigma-Aldrich) in phenol-red free DMEM medium containing […] (Sigma-Aldrich). Dose-response curves were plotted using GraphPad Prism software and EC50s were calculated using this program.

R40P = assay: Tumor cell viability; assay type: cell-based; conditions: Pancreatic (mouse spontaneous model) R40P, K-Ras
Method: as §1

HT29 = assay: Tumor cell viability; assay type: cell-based; conditions: Homo sapiens, HT-29; Colon HT29, B-RAF V600E
Method: as §1

MCF7 = assay: Tumor cell viability; assay type: cell-based; conditions: Homo sapiens; Breast MCF7, PI3K
Method: as §1

[2] = tested on: Tg(fli1:EGFP) zebrafish embryos; assay: Zebrafish angiogenesis model; conditions: for intersegmental vessel formation: treated 16-48 hpf, 5 μM imatinib, 1 μM GW 5074, alone or combined
Method: Embryos were treated with 1 μM 6 or SU5416, or 10 μM 3 from 20 hours post fertilization (hpf) until 48 hpf. Representative 3D reconstructions of the blood vasculature are shown for both the head and tail regions of the embryo. Designations for the major vessels in the head and tail of the zebrafish embryo at 48 hpf are available in FIG. 8A. (FIG. 3B) Disruption of lumen formation in the zebrafish during late vessel maturation. Zebrafish treated with either 1 μM 6 or 10 μM 3 from 20-48 hpf were imaged at 35 and 48 hpf. […] Shown is 3D overlap reconstruction of the GFP expressing intersegmental vessels with TUNEL-positive nuclei at 48 hpf (shown in red). Representative phase contrast views as well as quantification of intersegmental vessel volumes from FIG. 3A and FIG. 3B can be found in FIG. 8B-D, respectively. (FIG. 3C) Time course of drug addition to zebrafish. […] At 30 hpf the zebrafish embryos established early vessels with evident lumens. […] All scale bars=100 μm.
Z-stacks from laser scanning confocal microscopy are shown depicting formation of the intersegmental vessels at 48 hpf. n=6 embryos/treatment. (FIG. 4B) HUVECs were co-cultured with hTERT-human hepatic stellate cells in a 3-D collagen matrix in the presence of complete EBM-2 medium to monitor pericyte-associated endothelial tube formation. […] The endothelial tubes were stained at 24 h by adding 2 μl FITC labeled Ulex europaeus lectin (Vector labs) per well. Images were acquired 48 h post seeding of the cells. One representative panel from 3 independent experiments is shown. Green—FITC lectin labeled endothelial cells, Red—DiIC(3) labeled stellate cells. […] Scale bar=200 μm. (FIG. 4C) Tube lengths were measured using Metamorph software for each tube for all 10 fields that were acquired. The % pericyte-covered tube length was calculated from the ratio of tube length sums for the tubes with and without pericyte contact. Error bars are reported as ±SEM of two wells per group. *indicates p<0.05 compared to DMSO group.
Zebrafish studies. Transgenic Tg(fli1:EGFP) zebrafish embryos were purchased from www.zfin.org and reported elsewhere (Lawson, et al. (2002) Dev Biol 248:307-318) and maintained according to (“Zebrafish—A Practical Approach”, Oxford University Press, 2002). Compounds in DMSO stock solutions were diluted directly into the water and vessels were imaged for GFP expression using a Nikon c1-si confocal microscope. Apoptosis was measured by TUNEL staining using the Apoptag in situ Red Fluorescence Kit (Chemicon) with a protocol described previously (Stanton, et al. (2006) The Journal of biological chemistry 281:28782-28793).

[3] = tested on: HUVECs co-cultured with hTERT-human hepatic stellate cells; assay: Stellate cell/endothelial cell co-culture tube formation assay; assay type: cell-based; conditions: […] 6, […] 3, 1.0 μM imatinib, 0.5 μM GW 5074
Method: One representative panel from 3 independent experiments is shown. […] Scale bar=200 μm.
The stellate cells were washed in PBS and mixed with early passage HUVECs (p<5) at a ratio of 1:4 and mixed into a 3.75 mg/ml Type 1 Rat tail collagen matrix (BD Biosciences) in M-199 media. 30 μl of this mixture was seeded onto each well of a half-area 96 well plate (Corning). The collagen was allowed to polymerize for 30 min at 37° C. and […] of complete EBM-2 media was added to each well. Various inhibitors were serially diluted in DMSO and subsequently added to duplicate wells 6 h post cell seeding. […] The endothelial tubes and the stellate cells were imaged at 48 h with a 10× objective on a confocal microscope. Images were collected across five fields per well.
Stellate cell/endothelial cell tube formation assay and mouse matrigel model. This assay was performed as described in the SI Methods. The stellate cells were a gift from Dr. David Brenner and previously described (Schnabl, et al. (2002) Laboratory investigation; a journal of technical methods and pathology 82:323-333). […] The mouse matrigel model was performed as previously described (Eliceiri, et al. (1999) Molecular cell 4:915-924 5) and further details of immunohistochemistry and animal dosing can be found herein.
To validate the findings of Example 10, a co-culture angiogenesis assay was utilized to evaluate similar combinations of PDGFR and RAF inhibitors. In the assay, HUVECs are mixed with hepatic stellate cells (a pericyte found in the perisinusoidal space of the liver) in a 3D-collagen gel. The co-culture produced endothelial tubes with pericyte contacts (from the stellate cells) that can be imaged and quantified as shown in FIGS. 4B and C.

A549 cells = assay: Cell proliferation assay (BrdU ELISA) in A549 cells; assay type: cell-based; conditions: A549, low serum DMEM (0.5% FBS), 72 h
Method: A549 cells, which endogenously express oncogenic K-RAS, were plated at 2500 cells/well of a 96-well plate in low serum DMEM (0.5% fetal bovine serum) overnight. The next morning, compounds were serially diluted in DMSO and resuspended in fresh DMEM+0.5% medium, which was added to the cells for 72 h. At this time point the cells were fixed and proliferation was quantified using an ELISA for bromodeoxyuriding incorporation (BrdU ELISA, Millipore, Inc.). BrdU incorporation occurs during S phase and is the classical method for determining cell proliferation rates. In FIG. 14B-C, BrdU incorporation is expressed as a percentage of the BrdU incorporation occurring in cells treated with 0.1% DMSO as control. A dotted line represents the growth rate of cells treated with DMSO alone. […] (FIG. 13C)

XPA-1 cells = assay: Cell cycle analysis of XPA-1 cells (flow cytometry); assay type: cell-based; conditions: 5 μM, 20 h
Method: For cell cycle analysis, cells were grown in complete DMEM+10% FBS in the presence of each inhibitor and harvested after 20 h of inhibitor treatment. Cell cycle analysis was performed by flow cytometry following propidium iodide staining. The cells were harvested, fixed with ice cold methanol, treated for 45 min with 10 μg/ml of RNAse and resuspended in PBS containing 10 μg/ml of PI, and analysed by flow cytometry. […] For corresponding confocal microscopy images, cells attached to coverslips were fixed with cold methanol and permeabilized in PBS containing 0.1% triton X-100 for two minutes and blocked for 60 minutes, at room temperature with 2% BSA in PBS. Cells were stained with the DNA binding dye TOPRO-3 (Invitrogen) to label the DNA and laminB (Santa Cruz) to label the nuclear envelope. The anti-Lamin B antibody was used at a 1:100 dilution for two hours at room temperature. After washing several times with PBS, cells were stained for two hours at room temperature, with secondary antibody diluted 1:300 and co-incubated with TOPRO-3 (1:500) (Invitrogen). Samples were mounted in Vectashield hard-set mounting media (Vector Laboratories) and imaged on a Nikon Eclipse Cl confocal microscope with a 1.4 NA 60× oil-immersion lens, using minimum pinhole (30 μm). Images were captured and processed using EZ-C1 3.50 imaging software (Nikon, Inc). Scale bars, 10 μm.

Chain of B-RAF/C-RAF heterodimerization (P15056 whole entry, one chain of several): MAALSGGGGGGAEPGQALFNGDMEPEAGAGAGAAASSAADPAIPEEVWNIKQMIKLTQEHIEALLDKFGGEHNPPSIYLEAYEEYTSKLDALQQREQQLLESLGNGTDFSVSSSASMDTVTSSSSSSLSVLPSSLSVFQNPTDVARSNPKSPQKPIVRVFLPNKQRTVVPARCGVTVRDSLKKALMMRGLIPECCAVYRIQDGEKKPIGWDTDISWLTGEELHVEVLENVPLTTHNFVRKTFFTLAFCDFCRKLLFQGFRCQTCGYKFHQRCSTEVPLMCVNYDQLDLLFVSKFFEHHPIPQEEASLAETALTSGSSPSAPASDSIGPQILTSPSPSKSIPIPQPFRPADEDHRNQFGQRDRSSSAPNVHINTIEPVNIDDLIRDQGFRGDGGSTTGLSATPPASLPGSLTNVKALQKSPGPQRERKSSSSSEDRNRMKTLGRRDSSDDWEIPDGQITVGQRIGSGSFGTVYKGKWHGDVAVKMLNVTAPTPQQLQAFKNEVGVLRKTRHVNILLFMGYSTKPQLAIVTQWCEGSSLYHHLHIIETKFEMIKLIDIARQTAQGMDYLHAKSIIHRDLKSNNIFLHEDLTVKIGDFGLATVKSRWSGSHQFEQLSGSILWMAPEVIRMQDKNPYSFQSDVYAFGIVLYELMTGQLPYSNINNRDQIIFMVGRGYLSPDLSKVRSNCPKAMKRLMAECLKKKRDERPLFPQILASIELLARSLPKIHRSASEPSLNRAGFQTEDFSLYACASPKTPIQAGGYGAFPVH

N#CC(=C(/N)Sc1ccccc1N)/C(C#N)=C(\N)Sc1ccccc1N [Compound U0126]
B-RAF/C-RAF heterodimer formation [1]: greatly increased | EC50 (HCT116): > 20 µM | EC50 (R40P): 10.9 µM | EC50 (HT29): 4.41 µM | EC50 (MCF7): > 20 µM

O=C1Nc2ccc(I)cc2/C1=C/c1cc(Br)c(O)c(Br)c1 [GW 5074, reference compound]
intersegmental vessel formation [2]: do not have an effect on intersegmental vessel formation | endothelial tube formation and % pericyte-covered tube length [3]: did not affect pericyte coverage or tube length

Oc1cc(-c2nc(-c3ccccc3)[nH]c2-c2ccncc2)ccc1Cl [L-779,450]
cell proliferation (BrdU incorporation) versus DMSO control (A549 cells): induce hyperproliferation

O=C(NOC[C@H](O)CO)c1ccc(F)c(F)c1Nc1ccc(I)cc1F [PD0325901, reference compound]
cell cycle / mitotic progression (XPA-1 cells): had no effect on mitotic progression

CCCS(=O)(=O)Nc1ccc(F)c(C(=O)c2c[nH]c3ncc(Cl)cc23)c1F [PLX 4720]
cell proliferation (BrdU incorporation) versus DMSO control (A549 cells): induce hyperproliferation

Cc1cc(C)c(C=C2C(=O)Nc3ccccc32)[nH]1 [SU5416, 3-[(2,4-dimethylpyrrol-5-yl)methylene]-2-indolinone]
blood vessel formation in zebrafish embryos ([2]; treated 20-48 hpf, 1 μM 6 or SU5416, up to 10 μM 3): completely disrupting endothelial cell migration and neovascularization in the tail

Cc1ccc(NC(=O)c2ccc(CN3CCN(C)CC3)cc2)cc1Nc1nccc(-c2cccnc2)n1 [imatinib, reference compound]
intersegmental vessel formation [2]: do not have an effect on intersegmental vessel formation | endothelial tube formation and % pericyte-covered tube length [3]: did not affect endothelial tube formation
